Experimental data reported in patent publication US20240270762A1, “PENICILLIN-BINDING PROTEIN INHIBITORS” (priority 2021, published 2024).
Values after ≈ are worked out from the molar mass of the structure shown.

Assays:
[1] = system: K. pneumoniae UMM; assay: microbe, parasite or virus in culture; format: cell-based; settings: Klebsiella pneumoniae, read-out: MIC K. pneumoniae UMM
[2] = system: N. gonorrhoeae WHO L; assay: Liquid broth MIC in Fastidious broth; settings: Neisseria gonorrhoeae, read-out: Minimum Inhibitory Concentration (MIC), N. gonorrhoeae WHO L
[3] = biological target: T1, PBP3 from Pseudomonas aeruginosa (PAO1) (Pseudomonas aeruginosa, UniProt G3XD46); assay: Bocillin-FL fluorescence polarization competition binding, P. aeruginosa PBP3; settings: Binding affinity to P. aeruginosa PBP3; fluorescence polarization competition binding assay using Bocillin-FL; read-out: P. aeruginosa PBP3 Potency
T1 construct: made in house
T1 sequence (G3XD46 whole entry): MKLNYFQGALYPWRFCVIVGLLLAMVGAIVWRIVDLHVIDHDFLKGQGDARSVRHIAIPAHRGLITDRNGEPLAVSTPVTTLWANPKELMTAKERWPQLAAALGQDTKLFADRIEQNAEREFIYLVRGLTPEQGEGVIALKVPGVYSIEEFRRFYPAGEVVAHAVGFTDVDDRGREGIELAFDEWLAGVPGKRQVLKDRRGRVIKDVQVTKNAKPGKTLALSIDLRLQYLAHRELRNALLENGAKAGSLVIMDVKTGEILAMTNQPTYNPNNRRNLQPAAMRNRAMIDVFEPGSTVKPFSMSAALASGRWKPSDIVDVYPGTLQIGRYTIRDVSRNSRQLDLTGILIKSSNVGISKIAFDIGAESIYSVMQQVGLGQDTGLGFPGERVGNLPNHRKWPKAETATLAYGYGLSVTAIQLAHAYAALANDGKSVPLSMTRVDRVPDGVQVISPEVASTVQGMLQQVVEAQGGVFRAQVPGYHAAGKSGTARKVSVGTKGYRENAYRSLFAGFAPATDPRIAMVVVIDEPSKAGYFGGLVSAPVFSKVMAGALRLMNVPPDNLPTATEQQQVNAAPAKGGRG
In short: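 Purified PBPs pre-incubated with inhibitor (E. coli PBP3 1.5 μM, 30 min; P. aeruginosa PBP3 0.75 μM, A. baumannii PBP1a 1 μM and PBP3 0.2 μM, 15 min), then Bocillin-FL 0.1 μM (0.05 μM for PBP1a) added; FP read up to 60 min. EC50 = concentration halving bound Bocillin-FL.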

[4] = system: K. pneumoniae SI-117; assay: microbe, parasite or virus in culture; format: cell-based; settings: Klebsiella pneumoniae, SI117, read-out: MIC K. pneumoniae SI-117
[5] = system: N. gonorrhoeae WHO K; assay: Liquid broth MIC in Fastidious broth; settings: Neisseria gonorrhoeae, read-out: Minimum Inhibitory Concentration (MIC), N. gonorrhoeae WHO K
[6] = system: E. coli AG100A; assay: Broth microdilution MIC in CAMHB; format: cell-based; settings: Escherichia coli, read-out: MIC E. coli AG100A
[7] = system: N. gonorrhoeae CDC-0197; assay: Liquid broth MIC in Fastidious broth; settings: Neisseria gonorrhoeae, CDC0197, read-out: Minimum Inhibitory Concentration (MIC), N. gonorrhoeae CDC-0197
[8] = system: K. pneumoniae 848844; assay: microbe, parasite or virus in culture; format: cell-based; settings: Klebsiella pneumoniae, 848844, read-out: MIC K. pneumoniae 848844
[9] = system: N. gonorrhoeae FA1090; assay: Liquid broth MIC in Fastidious broth; settings: Neisseria gonorrhoeae, FA1090, read-out: Minimum Inhibitory Concentration (MIC), N. gonorrhoeae FA 1090
[10] = system: P. aeruginosa ATCC 35151; assay: microbe, parasite or virus in culture; format: cell-based; settings: Pseudomonas aeruginosa, ATCC35151, read-out: MIC P. aeruginosa ATCC 35151
[11] = system: E. coli 901C; assay: microbe, parasite or virus in culture; format: cell-based; settings: Escherichia coli, read-out: MIC E. coli 901C
[12] = system: N. gonorrhoeae ATCC 49226; assay: Liquid broth MIC in Fastidious broth; settings: Neisseria gonorrhoeae, ATCC49226, read-out: Minimum Inhibitory Concentration (MIC), N. gonorrhoeae ATCC 49226
[13] = system: A. baumannii ATCC 19606; assay: microbe, parasite or virus in culture; format: cell-based; settings: Acinetobacter baumannii, ATCC19606, read-out: MIC, A. baumannii ATCC 19606
[14] = system: E. coli ATCC 25922; assay: microbe, parasite or virus in culture; format: cell-based; settings: Escherichia coli, ATCC25922, read-out: MIC E. coli 25922
[15] = system: P. aeruginosa ATCC 27853; assay: microbe, parasite or virus in culture; format: cell-based; settings: Pseudomonas aeruginosa, ATCC27853, read-out: MIC P. aeruginosa ATCC 27853
[16] = system: N. gonorrhoeae WHO Q; assay: Liquid broth MIC in Fastidious broth; settings: Neisseria gonorrhoeae, read-out: Minimum Inhibitory Concentration (MIC), N. gonorrhoeae WHO Q

Row | SMILES | MIC [1] [µg/mL] | MIC [2] [µg/mL] | IC50 [3] [µM] | MIC [4] [µg/mL] | MIC [5] [µg/mL] | MIC [6] [µg/mL] | MIC [7] [µg/mL] | MIC [8] [µg/mL] | MIC [9] [µg/mL] | MIC [10] [µg/mL] | MIC [11] [µg/mL] | MIC [12] [µg/mL] | MIC [13] [µg/mL] | MIC [14] [µg/mL] | MIC [15] [µg/mL] | MIC [16] [µg/mL]
1 | O=C(O)c1cccc2c1OB(O)[C@@H](NC(=O)C(NS(=O)(=O)C1CC1)c1ccc(P(=O)(O)O)cc1)C2 (stereo partly drawn) [Example 61, (3R)-3-(2-(cyclopropanesulfonamido)-2-(4-phosphonophenyl)acetamido)-2-hydroxy-3,4-dihydro-2H-benzo[e][1,2]oxaborinine-8-carboxylic acid] | > 128 | 16 to 32 (≈ 30.5 to 61 µM) | 10 to 50 | > 128 | 16 to 32 (≈ 30.5 to 61 µM) | > 128 | 16 to 32 (≈ 30.5 to 61 µM) | > 128 | 16 to 32 (≈ 30.5 to 61 µM) | 32 to 64 (≈ 61 to 122 µM) | 32 to 64 (≈ 61 to 122 µM) | 16 to 32 (≈ 30.5 to 61 µM) | > 128 | > 128 | > 128 | 16 to 32 (≈ 30.5 to 61 µM)
2 | O=C1CC[C@@H](C(=O)NC(C(=O)N[C@H]2Cc3cccc(C(=O)O)c3OB2O)c2ccc(P(=O)(O)O)cc2)N1 (stereo partly drawn) [Example 64, (3R)-2-hydroxy-3-(2-((S)-5-oxopyrrolidine-2-carboxamido)-2-(4-phosphonophenyl)acetamido)-3,4-dihydro-2H-benzo[e][1,2]oxaborinine-8-carboxylic acid] | > 128 | 16 to 32 (≈ 30.1 to 60.2 µM) | 50 to 250 | > 128 | 16 to 32 (≈ 30.1 to 60.2 µM) | > 128 | 4 to 8 (≈ 7.53 to 15.1 µM) | > 128 | 4 to 8 (≈ 7.53 to 15.1 µM) | 8 to 16 (≈ 15.1 to 30.1 µM) | 8 to 16 (≈ 15.1 to 30.1 µM) | 4 to 8 (≈ 7.53 to 15.1 µM) | > 128 | > 128 | > 128 | 16 to 32 (≈ 30.1 to 60.2 µM)
3 | CC(=O)N1CCC[C@H]1C(=O)NC(C(=O)N[C@H]1Cc2cccc(C(=O)O)c2OB1O)c1ccc(P(=O)(O)O)cc1 (stereo partly drawn) [Example 65, (3R)-3-(2-((S)-1-acetylpyrrolidine-2-carboxamido)-2-(4-phosphonophenyl)acetamido)-2-hydroxy-3,4-dihydro-2H-benzo[e][1,2]oxaborinine-8-carboxylic acid] | > 128 | 16 to 32 (≈ 28.6 to 57.2 µM) | 50 to 250 | > 128 | 16 to 32 (≈ 28.6 to 57.2 µM) | > 128 | 16 to 32 (≈ 28.6 to 57.2 µM) | > 128 | 4 to 8 (≈ 7.15 to 14.3 µM) | 8 to 16 (≈ 14.3 to 28.6 µM) | 32 to 64 (≈ 57.2 to 114 µM) | 16 to 32 (≈ 28.6 to 57.2 µM) | > 128 | > 128 | > 128 | 16 to 32 (≈ 28.6 to 57.2 µM)
4 | CN1CCC[C@H]1C(=O)NC(C(=O)N[C@H]1Cc2cccc(C(=O)O)c2OB1O)c1ccc(P(=O)(O)O)cc1 (some centres unmarked) [Example 66] | > 128 | 16 to 32 (≈ 30.1 to 60.2 µM) | 10 to 50 | > 128 | 16 to 32 (≈ 30.1 to 60.2 µM) | 32 to 64 (≈ 60.2 to 120 µM) | 16 to 32 (≈ 30.1 to 60.2 µM) | > 128 | 4 to 8 (≈ 7.53 to 15.1 µM) | 8 to 16 (≈ 15.1 to 30.1 µM) | 32 to 64 (≈ 60.2 to 120 µM) | 16 to 32 (≈ 30.1 to 60.2 µM) | > 128 | > 128 | > 128 | 16 to 32 (≈ 30.1 to 60.2 µM)
5 | O=C(O)c1cccc2c1OB(O)[C@@H](NC(=O)C(NC(=O)C(F)(F)F)c1ccc(P(=O)(O)O)cc1)C2 (stereo partly drawn) [Example 172, (3R)-2-hydroxy-3-(2-(4-phosphonophenyl)-2-(2,2,2-trifluoroacetamido)acetamido)-3,4-dihydro-2H-benzo[e][1,2]oxaborinine-8-carboxylic acid] | > 128 | 16 to 32 (≈ 31 to 62 µM) | 50 to 250 | > 128 | 16 to 32 (≈ 31 to 62 µM) | > 128 | 16 to 32 (≈ 31 to 62 µM) | > 128 | 4 to 8 (≈ 7.75 to 15.5 µM) | 32 to 64 (≈ 62 to 124 µM) | 32 to 64 (≈ 62 to 124 µM) | 16 to 32 (≈ 31 to 62 µM) | > 128 | > 128 | > 128 | 16 to 32 (≈ 31 to 62 µM)
6 | O=C(O)c1cccc2c1OB(O)[C@@H](NC(=O)[C@H](NC(=O)[C@@H]1CCCN1)c1ccc(P(=O)(O)O)cc1)C2 [Example 173, (R)-2-hydroxy-3-((R)-2-(4-phosphonophenyl)-2-((S)-pyrrolidine-2-carboxamido)acetamido)-3,4-dihydro-2H-benzo[e][1,2]oxaborinine-8-carboxylic acid] | 32 to 64 (≈ 61.9 to 124 µM) | 16 to 32 (≈ 30.9 to 61.9 µM) | 10 to 50 | 32 to 64 (≈ 61.9 to 124 µM) | 16 to 32 (≈ 30.9 to 61.9 µM) | 32 to 64 (≈ 61.9 to 124 µM) | 16 to 32 (≈ 30.9 to 61.9 µM) | > 128 | 4 to 8 (≈ 7.73 to 15.5 µM) | 8 to 16 (≈ 15.5 to 30.9 µM) | 32 to 64 (≈ 61.9 to 124 µM) | 16 to 32 (≈ 30.9 to 61.9 µM) | > 128 | > 128 | > 128 | 16 to 32 (≈ 30.9 to 61.9 µM)
7 | O=C(O)c1cccc2c1OB(O)[C@@H](NC(=O)C(NC(=O)c1ccc[nH]c1=O)c1ccc(P(=O)(O)O)cc1)C2 (stereo partly drawn) [Example 174, (3R)-2-hydroxy-3-(2-(2-oxo-1,2-dihydropyridine-3-carboxamido)-2-(4-phosphonophenyl)acetamido)-3,4-dihydro-2H-benzo[e][1,2]oxaborinine-8-carboxylic acid] | > 128 | 16 to 32 (≈ 29.6 to 59.1 µM) | 10 to 50 | > 128 | 16 to 32 (≈ 29.6 to 59.1 µM) | > 128 | 16 to 32 (≈ 29.6 to 59.1 µM) | > 128 | 1 to 2 (≈ 1.85 to 3.7 µM) | 2 to 4 (≈ 3.7 to 7.39 µM) | 8 to 16 (≈ 14.8 to 29.6 µM) | 4 to 8 (≈ 7.39 to 14.8 µM) | > 128 | > 128 | > 128 | 16 to 32 (≈ 29.6 to 59.1 µM)
8 | O=C(O)c1cccc2c1OB(O)[C@@H](NC(=O)[C@H](NC(=O)c1c[nH]ccc1=O)c1ccc(P(=O)(O)O)cc1)C2 [Example 175, (R)-2-hydroxy-3-((R)-2-(4-oxo-1,4-dihydropyridine-3-carboxamido)-2-(4-phosphonophenyl)acetamido)-3,4-dihydro-2H-benzo[e][1,2]oxaborinine-8-carboxylic acid] | 32 to 64 (≈ 59.1 to 118 µM) | 16 to 32 (≈ 29.6 to 59.1 µM) | < 10 | 32 to 64 (≈ 59.1 to 118 µM) | 16 to 32 (≈ 29.6 to 59.1 µM) | 32 to 64 (≈ 59.1 to 118 µM) | 4 to 8 (≈ 7.39 to 14.8 µM) | 32 to 64 (≈ 59.1 to 118 µM) | < 1 | < 1 | 2 to 4 (≈ 3.7 to 7.39 µM) | 1 to 2 (≈ 1.85 to 3.7 µM) | > 128 | 32 to 64 (≈ 59.1 to 118 µM) | 32 to 64 (≈ 59.1 to 118 µM) | 4 to 8 (≈ 7.39 to 14.8 µM)
